Data on 38 compounds can be found in US20180021467A1, “METHOD OF BLOCKING PERCEPTION OF MALODOR” (Monell Chemical Senses Center, priority 2015, published 2018).

This assay deals with T1, TAAR5 (Homo sapiens, UniProt O14804).
T1 sequence (O14804 1-337): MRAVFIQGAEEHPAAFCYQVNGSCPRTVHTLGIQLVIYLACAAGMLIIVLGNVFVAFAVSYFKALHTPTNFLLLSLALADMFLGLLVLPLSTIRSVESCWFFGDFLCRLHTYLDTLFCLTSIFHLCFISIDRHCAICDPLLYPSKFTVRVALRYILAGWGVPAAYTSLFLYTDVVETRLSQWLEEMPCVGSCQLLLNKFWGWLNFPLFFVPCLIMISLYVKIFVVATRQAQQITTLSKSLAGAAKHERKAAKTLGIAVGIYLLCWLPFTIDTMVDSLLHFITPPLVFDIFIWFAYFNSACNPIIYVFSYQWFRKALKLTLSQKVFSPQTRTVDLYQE
Briefly: Antagonist screen of odor library on TAAR5 with agonist TMA (Dual-Glo luciferase assay, Hana3A cells). In kind it is cell-based. On the set-up: TAAR open reading frames were amplified from pooled human genomic DNA using Phusion polymerase and subcloned into a pCI expression vector; Rho tag (first 20 residues of human rhodopsin); expressed in transfected cells; host or cells: Hana3A cells. The settings on record: inhibition of TMA/TAAR5 response; test odor at 30 μM; TMA at EC80; read-out: Percent Inhibition. The protocol:
We screened a TAAR of interest, TAAR5, with the agonist TMA added at the EC80 concentration, against a proprietary small-molecule library to identify antagonists. TAAR open reading frames were amplified from pooled human genomic DNA using Phusion polymerase and subcloned into a pCI expression vector (Promega) containing the first 20 residues of human rhodopsin (Rho tag). […] Hana3A cells were transfected with 5 ng/well of RTP1S, 5 ng/well of pRL-SV40, 10 ng/well of CRE-luciferase, 2.5 ng/well of M3, and 5 ng/well of odorant receptor. 1M odorant stocks were diluted in DMSO. 24 hours following transfection, transfection media was removed and replaced with the appropriate concentration of odor diluted from the 1M stocks in CD293 (Gibco). Four hours following odor stimulation luminescence was measured using a Synergy 2 plate reader (Biotek). All luminescence values were divided by the Renilla Luciferase activity to control for transfection efficiency in a given well.
We completed an antagonist screen of a proprietary library of odors, including the 52 odorous compounds identified in FIG. 4 at a concentration of 30 μM.

Broadly, the inhibition is the share of the control response that was lost under treatment. On to `O=C(Cc1ccccc1)Cc1ccccc1` [1,3-Diphenyl-2-propanone], for which the inhibition at 30 µM came out at 73.1%.
For the compound `CCCCCCCCCCCCCCO` [1-Tetradecanol], the inhibition at 30 µM came to 54.1%.
The result for `OC1CSC(O)CS1` (centres unmarked) [2,5-Dihydroxy-1,4-dithiane] reads 67.9%; that for `CC(C=O)Cc1ccc2c(c1)OCO2` (centres unmarked) [2-Methyl-3-(3,4-methylenedioxyphenyl)-propanal], 50.1%; that for `C/C=C(\C=O)c1ccccc1` [2-Phenyl-2-butenal], 68.9%.
The figure for `CCCCCCC/C=C/C=O` [2-decenal] is 66.4%; for `CC(C)CCCC(C)CCO` (centres unmarked) [3,7-Dimethyl-1-octanol] it is 57.1%.
The figure for `CSCCC=O` [3-(Methylthio)propionaldehyde] is 54.5%; for `CCCCCC/C=C/C(C)=O` [3-Decen-2-one] it is 72.5%; for `C=CCN=C=S` [Allyl isothiocyanate] it is 77.4%.
Regarding `CCCCCC(C=O)=Cc1ccccc1` [Alpha-Amylcinnamaldehyde], the inhibition at 30 µM stood at 75.8%.
In the case of `C[C@@]12C=CC[C@H]1[C@@H]1CCC3=CC(=O)CC[C@]3(C)[C@H]1CC2` [Androstadienone, Androsta-4,16-dien-3-one], the inhibition at 30 µM amounted to 76%.
For the compound `O=C(OCc1ccccc1)c1ccccc1` [Benzyl benzoate], the inhibition at 30 µM was 83.9%.
The figure for `c1ccc(CSSCc2ccccc2)cc1` [Benzyl disulfide] is 81%; for `SCc1ccccc1` [Benzyl mercaptan] it is 75.8%; for `O=C(Cc1ccccc1)OCc1ccccc1` [Benzyl phenylacetate] it is 72.7%.
The figure for `O=C(OCc1ccccc1)c1ccccc1O` [Benzyl salicylate] is 74.2%; for `Cc1ccc(C(C)C)cc1O` [Carvacrol] it is 52.2%; for `O=CC1CCCCCC1` [Cycloheptanecarbaldehyde] it is 64.4%.
The figure for `CC1COCc2cc3c(cc21)C(C)(C)C(C)C3(C)C` (centres unmarked) [Galaxolide] is 71.2%; for `CCCCCC=O` [Hexanal] it is 69.4%.
As for `O=C1CCCCCCC/C=C/CCCCCCO1` [Isoambrettolide], the inhibition at 30 µM is 78.7%.
For `CC(C)COC(=O)c1ccccc1` [Isobutyl benzoate], the inhibition at 30 µM came out at 63.3%.
The result for `CCCCCCCCCCCC(=O)O` [Lauric acid] reads 86%.
The figure for `COc1ccc2cc(CCC(C)=O)ccc2c1` [Nabumetone] is 73.8%; for `O=C(OCCc1ccccc1)c1ccco1` [Phenethyl 2-furoate] it is 59.6%; for `Nc1ccccc1C(=O)OCCc1ccccc1` [Phenethyl anthranilate] it is 92.8%.
The result for `O=C(Cc1ccccc1)OCCc1ccccc1` [Phenethyl phenylacetate] reads 88.9%; that for `O=C(OCCc1ccccc1)c1ccccc1O` [Phenethyl salicylate], 85%; that for `O=C1CCCCCCCCCCCCCCO1` [Thibetolide], 81%.
`CC/C=C/CC/C=C/C=O` [Trans, trans-2,6-Nonadienal]: the inhibition at 30 µM is 71.4%.
The result for `COC(=O)c1ccccc1/N=C/CC(C)CCCC(C)(C)O` (centres unmarked) [aurantiol] reads 79.6%; that for `OCc1ccccc1` [benzyl alcohol], 62.5%.
The result for `CC/C=C\CCC=O` [cis-4-Heptenal] reads 61.5%.
Take `CCc1occc(=O)c1O` [ethyl maltol, 2-Ethyl-3-hydroxy-4H-pyran-4-one]: the inhibition at 30 µM was found to be 72.5%.
The result for `CC(C)=CCC/C(C)=C/CO` [geraniol] reads 81.3%.
The result for `CC(=O)C1(C)CC2=C(CCCC2(C)C)CC1C` (centres unmarked) [iso E super, isocyclemone E] reads 69.6%.
The figure for `CCCCCCCCCCCCCC(=O)O` [myristic acid] is 59.1%.
